Reference: patent publication US11414422B2, “Substituted pyrido[4,3-b]indoles and azepino[4,5-b]indoles as inhibitors of cGAS” (The Rockefeller University, priority 2018, dated 2022)

Molecular target: T1, h-cGAS (Homo sapiens, UniProt Q8N884)
T1 construct: The final concentration of full-length h-cGAS, dsDNA, ATP, and GTP were 100 nM
Experiment: cGAS biochemical assay, RapidFire 365 mass spectrometry (RF-MS)
Conditions: full-length h-cGAS 100 nM, dsDNA 25 nM, ATP and GTP 100 μM, 7 h at RT

T1 sequence (Q8N884 whole entry): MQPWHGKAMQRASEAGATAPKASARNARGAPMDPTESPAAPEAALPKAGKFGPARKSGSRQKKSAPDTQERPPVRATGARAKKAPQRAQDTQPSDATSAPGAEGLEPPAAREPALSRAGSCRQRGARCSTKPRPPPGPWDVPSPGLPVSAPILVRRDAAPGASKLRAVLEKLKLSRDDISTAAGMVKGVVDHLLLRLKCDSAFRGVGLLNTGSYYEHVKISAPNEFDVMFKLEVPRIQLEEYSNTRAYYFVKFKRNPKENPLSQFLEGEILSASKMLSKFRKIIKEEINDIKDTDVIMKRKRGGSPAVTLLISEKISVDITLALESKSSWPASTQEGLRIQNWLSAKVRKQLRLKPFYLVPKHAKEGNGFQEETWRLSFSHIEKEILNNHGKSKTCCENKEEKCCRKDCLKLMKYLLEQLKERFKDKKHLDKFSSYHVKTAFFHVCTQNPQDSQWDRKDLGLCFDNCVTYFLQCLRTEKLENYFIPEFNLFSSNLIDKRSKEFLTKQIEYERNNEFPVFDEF

With COCC(=O)N1CCc2[nH]c3c(Cl)cc(Cl)cc3c2C1 [TDI-004576] as the molecule, how does the IC50 read?
Its IC50 is 3080 nM.

How did the IC50 turn out when COCC(=O)N1CCc2c(c3cc(Cl)cc(Cl)c3n2C)C1 [TDI-004581] was run?
Its IC50 is 2410 nM.

How did the IC50 turn out when COCC(=O)N1CCc2c(c3cc(Cl)cc(Cl)c3n2CC(F)(F)F)C1 [TDI-005021] was run?
The IC50 was 13900 nM.

With COCC(=O)N1CCc2[nH]c3c(Cl)cccc3c2C1 [TDI-005323] as the molecule, how does the IC50 read?
Its IC50 is 5860 nM.

With COCC(=O)N1CCc2[nH]c3cc(Cl)ccc3c2C1 [TDI-005324] as the molecule, how does the IC50 read?
The IC50 was 4020 nM.

How did the IC50 turn out when COCC(=O)N1CCc2[nH]c3c(Cl)ccc(Cl)c3c2C1 [TDI-005325] was run?
The IC50 was 3230 nM.

How did the IC50 turn out when CCOCC(=O)N1CCc2[nH]c3c(Cl)c(Cl)ccc3c2C1 [TDI-005716] was run?
Its IC50 is 1510 nM.

For COCCOCC(=O)N1CCc2[nH]c3c(Cl)c(Cl)ccc3c2C1 [TDI-005719], which IC50 is on record?
The IC50 was 3290 nM.

With O=C(C1CCCO1)N1CCc2[nH]c3c(Cl)c(Cl)ccc3c2C1 (stereo not drawn) [TDI-005745] as the molecule, how does the IC50 read?
Its IC50 is 3080 nM.

COCC(=O)N1CCc2[nH]c3c(Br)c(Cl)ccc3c2C1 [TDI-005776] was tested. Which IC50 did it give?
The IC50 was 203 nM.

For COCC(=O)N1CCc2[nH]c3c(OC)c(Cl)ccc3c2C1 [TDI-005777], which IC50 is on record?
Its IC50 is 24700 nM.

Which IC50 does the source give for COCC(=O)N1CCc2[nH]c3c(Cl)c(Br)ccc3c2C1 [TDI-005854] here?
The IC50 was 198 nM.

How did the IC50 turn out when COCC(=O)N1CCc2[nH]c3cc(Br)ccc3c2C1 [TDI-005855] was run?
Its IC50 is 1740 nM.

How did the IC50 turn out when COCC(=O)N1CCc2[nH]c3c(Cl)c(C#N)ccc3c2C1 [TDI-006171] was run?
Its IC50 is 7690 nM.

For COCC(=O)N1CCc2[nH]c3c(C#N)c(Cl)ccc3c2C1 [TDI-006182], which IC50 is on record?
Its IC50 is 570 nM.

For O=C(CO)N1CCc2[nH]c3c(Cl)c(Cl)ccc3c2CC1 [TDI-006183], which IC50 is on record?
The IC50 was 469 nM.

For O=C(CO)N1CCc2[nH]c3c(Br)c(Cl)ccc3c2C1 [TDI-006261], which IC50 is on record?
Its IC50 is 140 nM.

Which IC50 does the source give for Cc1ccc2c3c([nH]c2c1C)CCN(C(=O)CO)C3 [TDI-006339] here?
Its IC50 is 7630 nM.

Which IC50 does the source give for O=C(CO)N1CCc2[nH]c3c(F)c(Cl)ccc3c2C1 [TDI-006340] here?
Its IC50 is 129 nM.

Which IC50 does the source give for O=C(CO)N1CCc2[nH]c3c(Cl)c(Br)ccc3c2C1 [TDI-006354] here?
The IC50 was 43 nM.

How did the IC50 turn out when Cc1ccc2c3c([nH]c2c1Cl)CCN(C(=O)CO)C3 [TDI-006358] was run?
The IC50 was 597 nM.

How did the IC50 turn out when O=C(CO)N1CCc2[nH]c3c(Cl)c(F)ccc3c2C1 [TDI-006359] was run?
The IC50 was 440 nM.

Cc1c(Cl)ccc2c3c([nH]c12)CCN(C(=O)CO)C3 [TDI-006360] was tested. Which IC50 did it give?
The IC50 was 327 nM.

Cn1c2c(c3ccc(Cl)c(Cl)c31)CN(C(=O)CO)CC2 [TDI-006366] was tested. Which IC50 did it give?
The IC50 was 201 nM.

With COc1cc2c3c([nH]c2c(Cl)c1Cl)CCN(C(=O)CO)C3 [TDI-006528] as the molecule, how does the IC50 read?
The IC50 was 31 nM.

With O=C(CO)N1CCc2[nH]c3c(F)c(Br)ccc3c2C1 [TDI-006529, 1-(7-Bromo-6-fluoro-1,3,4,5-tetrahydro-2H-pyrido[4,3-b]indol-2-yl)-2-hydroxyethan-1-one] as the molecule, how does the IC50 read?
Its IC50 is 39 nM.

Which IC50 does the source give for COc1cc(Cl)c(Cl)c2[nH]c3c(c12)CN(C(=O)CO)CC3 [TDI-006622] here?
The IC50 was 49 nM.

C=Cc1ccc2c3c([nH]c2c1F)CCN(C(=O)CO)C3 [TDI-006923] was tested. Which IC50 did it give?
The IC50 was 19300 nM.

N#Cc1c(Cl)ccc2c3c([nH]c12)CCN(C(=O)CO)C3 [TDI-006931] was tested. Which IC50 did it give?
The IC50 was 402 nM.

With N#Cc1ccc2c3c([nH]c2c1C#N)CCN(C(=O)CO)C3 [TDI-006932] as the molecule, how does the IC50 read?
The IC50 was > 25000 nM.

With O=C(CO)N1CCc2[nH]c3c(F)c(Cl)c(Br)cc3c2C1 [TDI-007362] as the molecule, how does the IC50 read?
The IC50 was 591 nM.

With C#Cc1ccc2c3c([nH]c2c1F)CCN(C(=O)CO)C3 [TDI-007433] as the molecule, how does the IC50 read?
Its IC50 is 1450 nM.

For O=C(CO)N1CCc2[nH]c3c(Cl)c(Cl)cc(-c4ccn[nH]4)c3c2C1 [TDI-007457], which IC50 is on record?
The IC50 was 54.1 nM.

N#Cc1cc2c3c([nH]c2c(F)c1Cl)CCN(C(=O)CO)C3 [TDI-007542] was tested. Which IC50 did it give?
The IC50 was 1230 nM.

O=C(CO)N1CCc2[nH]c3c(F)c(Cl)c(F)cc3c2C1 [TDI-007544] was tested. Which IC50 did it give?
Its IC50 is 166 nM.

How did the IC50 turn out when CC1CN(C(=O)CO)Cc2c1[nH]c1c(Cl)c(Cl)ccc21 (stereo not drawn) [TDI-007553] was run?
The IC50 was 300 nM.

O=C(CO)N1CCc2[nH]c3c(F)c(Cl)c(N4CCC4)cc3c2C1 [TDI-007560] was tested. Which IC50 did it give?
Its IC50 is 6740 nM.

How did the IC50 turn out when C[C@H]1CN(C(=O)CO)Cc2c1[nH]c1c(Cl)c(Cl)ccc21 [TDI-007575] was run?
The IC50 was 174 nM.

How did the IC50 turn out when C[C@@H]1CN(C(=O)CO)Cc2c1[nH]c1c(Cl)c(Cl)ccc21 [TDI-007576] was run?
Its IC50 is 323 nM.

For N#Cc1cc(Cl)c(Cl)c2[nH]c3c(c12)CN(C(=O)CO)CC3 [TDI-007586], which IC50 is on record?
The IC50 was 352 nM.

Which IC50 does the source give for Cn1c2c(c3c(-c4cn[nH]c4)cc(Cl)c(Cl)c31)CN(C(=O)CO)CC2 [TDI-007945] here?
Its IC50 is 125 nM.

With COCC(=O)N1CCc2c(c3c(-c4cn[nH]c4)cc(Cl)c(Cl)c3n2C)C1 [TDI-008026] as the molecule, how does the IC50 read?
Its IC50 is 203 nM.

COCC(=O)N1CCc2c(c3ccc(Br)c(F)c3n2C)C1 [TDI-008034] was tested. Which IC50 did it give?
The IC50 was 401 nM.

Which IC50 does the source give for Cn1c2c(c3ccc(Br)c(F)c31)CN(C(=O)CO)CC2 [TDI-008061] here?
Its IC50 is 131 nM.

Which IC50 does the source give for CCn1c2c(c3ccc(Br)c(F)c31)CN(C(=O)CO)CC2 [TDI-008062] here?
Its IC50 is 1030 nM.

With O=C(CO)N1CCc2[nH]c3c(Cl)c(Cl)cc(-c4ccoc4)c3c2C1 [TDI-008069] as the molecule, how does the IC50 read?
Its IC50 is 84.8 nM.

Which IC50 does the source give for O=C(CO)N1CCc2[nH]c3c(Cl)c(Cl)cc(-c4ccncc4)c3c2C1 [TDI-008072] here?
The IC50 was 97.5 nM.

Cn1cccc1-c1cc(Cl)c(Cl)c2[nH]c3c(c12)CN(C(=O)CO)CC3 [TDI-008075] was tested. Which IC50 did it give?
The IC50 was 469 nM.

Cc1[nH]ncc1-c1cc(Cl)c(Cl)c2[nH]c3c(c12)CN(C(=O)CO)CC3 [TDI-008076] was tested. Which IC50 did it give?
The IC50 was 11400 nM.

With O=C(CO)N1CCc2[nH]c3c(Cl)c(Cl)cc(C4=CCCCO4)c3c2C1 [TDI-008078] as the molecule, how does the IC50 read?
Its IC50 is 31.8 nM.

O=C(CO)N1CCc2[nH]c3c(Cl)c(Cl)cc(C4=CCOCC4)c3c2C1 [TDI-008079] was tested. Which IC50 did it give?
The IC50 was 890 nM.

With O=C(CO)N1CCc2[nH]c3c(Cl)c(Cl)cc(-c4ccsc4)c3c2C1 [TDI-008080] as the molecule, how does the IC50 read?
The IC50 was 66.8 nM.

Which IC50 does the source give for O=C(CO)N1CCc2[nH]c3c(Cl)c(Cl)cc(-c4cccs4)c3c2C1 [TDI-008081] here?
The IC50 was 47.9 nM.

Nc1ccccc1-c1cc(Cl)c(Cl)c2[nH]c3c(c12)CN(C(=O)CO)CC3 [TDI-008082] was tested. Which IC50 did it give?
Its IC50 is 322 nM.

How did the IC50 turn out when Nc1ccc(-c2cc(Cl)c(Cl)c3[nH]c4c(c23)CN(C(=O)CO)CC4)cc1 [TDI-008083] was run?
Its IC50 is 20.3 nM.

Which IC50 does the source give for O=C(CO)N1CCc2[nH]c3c(Cl)c(Cl)cc(-c4ccccc4O)c3c2C1 [TDI-008084] here?
The IC50 was 258 nM.

How did the IC50 turn out when O=C(CO)N1CCc2[nH]c3c(Cl)c(Cl)cc(-c4cccc(O)c4)c3c2C1 [TDI-008085] was run?
The IC50 was 30.9 nM.

How did the IC50 turn out when Nc1ncccc1-c1cc(Cl)c(Cl)c2[nH]c3c(c12)CN(C(=O)CO)CC3 [TDI-008086] was run?
Its IC50 is 2050 nM.

Cc1ncc(-c2cc(Cl)c(Cl)c3[nH]c4c(c23)CN(C(=O)CO)CC4)cn1 [TDI-008088] was tested. Which IC50 did it give?
The IC50 was 56.9 nM.

For O=C(CO)N1CCc2[nH]c3c(Cl)c(Cl)cc(-c4ccc(F)cc4)c3c2C1 [TDI-008089], which IC50 is on record?
Its IC50 is 64.4 nM.

For O=C(CO)N1CCc2[nH]c3c(Cl)c(Cl)cc(-c4ccccc4F)c3c2C1 [TDI-008090], which IC50 is on record?
The IC50 was 26.7 nM.

O=C(CO)N1CCc2[nH]c3c(Cl)c(Cl)cc(-c4cccc(F)c4)c3c2C1 [TDI-008091] was tested. Which IC50 did it give?
Its IC50 is 31 nM.

Which IC50 does the source give for Cc1nn(C)cc1-c1cc(Cl)c(Cl)c2[nH]c3c(c12)CN(C(=O)CO)CC3 [TDI-008092] here?
Its IC50 is 1840 nM.

Which IC50 does the source give for Cc1cc(-c2cc(Cl)c(Cl)c3[nH]c4c(c23)CN(C(=O)CO)CC4)nn1C [TDI-008093] here?
The IC50 was 330 nM.

Which IC50 does the source give for Cc1c(-c2cc(Cl)c(Cl)c3[nH]c4c(c23)CN(C(=O)CO)CC4)cnn1C [TDI-008094] here?
The IC50 was 371 nM.

For Cc1cc(-c2cc(Cl)c(Cl)c3[nH]c4c(c23)CN(C(=O)CO)CC4)n(C)n1 [TDI-008095], which IC50 is on record?
The IC50 was 929 nM.
